The values that follow come from ChEMBL document CHEMBL1143295, “Discovery of potent inhibitors of interleukin-2 inducible T-cell kinase (ITK) through structure-based drug design” (Bioorg Med Chem Lett, 2009).

One test concerns the target Insulin receptor (Homo sapiens, UniProt P06213). Briefly: Inhibition of IRK.
Test [1] can be described thus: Selectivity ratio of IC50 for IRK to IC50 for ITK.
Test [2] has as its target T1, Tyrosine-protein kinase ITK/TSK (Homo sapiens, UniProt Q08881).
T1 sequence (Q08881 whole entry): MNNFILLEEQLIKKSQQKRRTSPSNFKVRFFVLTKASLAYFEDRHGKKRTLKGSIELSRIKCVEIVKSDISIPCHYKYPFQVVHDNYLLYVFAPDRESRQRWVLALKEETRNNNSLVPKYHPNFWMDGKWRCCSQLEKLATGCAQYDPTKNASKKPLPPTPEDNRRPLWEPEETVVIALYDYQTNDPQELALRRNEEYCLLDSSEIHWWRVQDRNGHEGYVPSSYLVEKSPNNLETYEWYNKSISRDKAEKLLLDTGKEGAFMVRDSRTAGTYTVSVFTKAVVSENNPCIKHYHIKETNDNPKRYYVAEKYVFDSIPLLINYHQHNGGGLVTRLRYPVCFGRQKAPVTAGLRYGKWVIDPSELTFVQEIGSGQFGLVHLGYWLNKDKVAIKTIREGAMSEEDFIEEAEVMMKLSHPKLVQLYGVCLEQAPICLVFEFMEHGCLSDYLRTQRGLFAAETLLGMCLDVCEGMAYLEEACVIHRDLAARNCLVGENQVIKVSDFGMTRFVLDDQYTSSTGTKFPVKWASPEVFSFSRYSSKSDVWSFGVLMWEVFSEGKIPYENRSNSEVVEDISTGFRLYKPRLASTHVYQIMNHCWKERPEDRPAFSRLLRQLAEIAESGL
Briefly: Inhibition of human ITK expressed in chicken DT40 cells assessed as calcium influx by FLIPR. In kind it is cell-based.

Test [3] has as its target T1, Tyrosine-protein kinase ITK/TSK. Briefly: Inhibition of ITK by DELFIA method.

Insulin receptor, sequence (P06213 28-758 limits assumed): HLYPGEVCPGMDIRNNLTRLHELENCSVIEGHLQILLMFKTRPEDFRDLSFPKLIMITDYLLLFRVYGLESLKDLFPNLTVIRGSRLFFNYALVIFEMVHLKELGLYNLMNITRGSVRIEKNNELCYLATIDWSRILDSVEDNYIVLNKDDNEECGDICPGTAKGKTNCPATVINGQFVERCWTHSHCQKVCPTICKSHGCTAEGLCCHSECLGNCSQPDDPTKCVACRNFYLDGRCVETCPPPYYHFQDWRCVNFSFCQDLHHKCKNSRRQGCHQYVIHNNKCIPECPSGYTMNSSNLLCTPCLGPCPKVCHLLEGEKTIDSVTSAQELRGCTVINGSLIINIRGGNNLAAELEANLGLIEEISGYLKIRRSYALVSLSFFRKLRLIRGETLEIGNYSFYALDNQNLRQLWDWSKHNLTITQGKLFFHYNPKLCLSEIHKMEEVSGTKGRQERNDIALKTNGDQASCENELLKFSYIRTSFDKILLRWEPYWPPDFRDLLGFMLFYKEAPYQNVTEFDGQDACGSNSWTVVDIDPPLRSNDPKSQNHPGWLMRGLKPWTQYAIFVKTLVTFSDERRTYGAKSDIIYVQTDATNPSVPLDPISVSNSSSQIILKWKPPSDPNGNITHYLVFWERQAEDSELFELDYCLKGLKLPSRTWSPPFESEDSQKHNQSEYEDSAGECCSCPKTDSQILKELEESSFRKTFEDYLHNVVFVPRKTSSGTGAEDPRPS
Insulin receptor, sequence (P06213 763-1382 limits assumed): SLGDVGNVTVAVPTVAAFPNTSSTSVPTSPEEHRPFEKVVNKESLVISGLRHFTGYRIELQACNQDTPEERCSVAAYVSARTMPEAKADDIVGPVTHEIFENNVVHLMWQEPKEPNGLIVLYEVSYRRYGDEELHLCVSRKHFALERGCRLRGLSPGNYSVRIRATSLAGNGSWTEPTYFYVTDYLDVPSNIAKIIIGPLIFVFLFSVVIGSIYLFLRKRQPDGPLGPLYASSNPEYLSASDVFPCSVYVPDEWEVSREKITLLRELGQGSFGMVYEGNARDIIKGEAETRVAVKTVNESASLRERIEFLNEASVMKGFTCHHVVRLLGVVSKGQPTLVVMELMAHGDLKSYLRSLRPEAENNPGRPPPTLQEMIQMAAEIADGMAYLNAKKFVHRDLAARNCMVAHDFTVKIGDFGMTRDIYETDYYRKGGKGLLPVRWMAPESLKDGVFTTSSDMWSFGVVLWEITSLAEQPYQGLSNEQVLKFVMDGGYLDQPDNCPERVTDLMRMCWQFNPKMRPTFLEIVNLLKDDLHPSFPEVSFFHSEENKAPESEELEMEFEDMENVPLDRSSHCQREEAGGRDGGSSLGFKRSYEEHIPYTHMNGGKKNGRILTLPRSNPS

Turning to `CN(C(=O)c1ccccc1)c1ccc2c(c1)[nH]/c(=N\C(=O)c1ccc(-c3cccnc3)s1)n2CCC(N)=O`, the IC50 on Insulin receptor is greater than 6 µM.
Take `CN(C(=O)c1ccccc1)c1ccc2c(c1)[nH]/c(=N\C(=O)c1cocn1)n2CCC(N)=O`: in test [1], the Ratio IC50 is greater than 1000.
With `CN(C(=O)c1ccccc1)c1ccc2c(c1)nc(NC(=O)c1ccc(-c3cocn3)s1)n2CCC(N)=O`, the IC50 against Insulin receptor was greater than 6 µM.
Take `CN(C(=O)c1ccccc1)c1ccc2c(c1)[nH]/c(=N\C(=O)c1ccc(-c3cncc(C#N)c3)s1)n2CCC(N)=O`: at Insulin receptor, the IC50 is greater than 6 µM.
`CN(C(=O)c1ccccc1)c1ccc2c(c1)[nH]/c(=N\C(=O)c1ccc(-c3ccccn3)s1)n2CCC(N)=O` returned an IC50 on Insulin receptor greater than 6 µM.
On the same count and under the same terms, for `CN(C(=O)c1ccccc1)c1ccc2c(c1)nc(NC(=O)c1ccc(Oc3ccccc3)s1)n2CCC(N)=O` the value was greater than 6 µM; for `CC(C)C(=O)c1ccc(C(=O)Nc2nc3cc(N(C)C(=O)c4ccccc4)ccc3n2CCC(N)=O)s1`, greater than 6 µM; for `CN(C(=O)c1ccccc1)c1ccc2c(c1)nc(NC(=O)c1ccc(-c3ccnc(F)c3)s1)n2CCC(N)=O`, greater than 6 µM.
`CN(C(=O)c1ccccc1)c1ccc2c(c1)[nH]/c(=N\C(=O)c1ccc(-c3ccccc3)s1)n2CCC(N)=O` had an IC50 against Insulin receptor greater than 6 µM.
Compound `CN(C(=O)c1ccccc1)c1ccc2c(c1)nc(NC(=O)c1ccc(Br)cc1)n2CCC(N)=O` registered a concentration for half-maximal inhibition (IC50) on Insulin receptor greater than 6 µM.
As for `COc1ccc(C(=O)Nc2nc3cc(N(C)C(=O)c4ccccc4)ccc3n2CCC(N)=O)cc1`, the IC50 was greater than 5 µM in test [2], 0.17 µM in test [3] and greater than 6 µM at Insulin receptor.
Take `CN(C(=O)c1ccccc1)c1ccc2c(c1)nc(NC(=O)c1ccc(N3CCNCC3)s1)n2CCC(N)=O`: the IC50 was greater than 3.2 µM in test [2], 0.15 µM in test [3] and greater than 6 µM against Insulin receptor.
As for `CC(=O)c1ccc(C(=O)Nc2nc3cc(N(C)C(=O)c4ccccc4)ccc3n2CCC(N)=O)s1`, the IC50 against Insulin receptor is greater than 6 µM.
Turning to `CN(C(=O)c1ccccc1)c1ccc2c(c1)nc(NC(=O)c1ccno1)n2CCC(N)=O`, the IC50 against Insulin receptor is greater than 6 µM.
At Insulin receptor, `CN(C(=O)c1ccccc1)c1ccc2c(c1)[nH]/c(=N\C(=O)c1ccc(-c3cnccn3)s1)n2CCC(N)=O` showed an IC50 greater than 6 µM.
Compound `CN(C(=O)c1ccccc1)c1ccc2c(c1)[nH]/c(=N\C(=O)c1ccc(N3CCCCC3)s1)n2CCC(N)=O` returned an IC50 at Insulin receptor greater than 6 µM.
Regarding `CN(C(=O)c1ccccc1)c1ccc2c(c1)[nH]/c(=N\C(=O)c1ncco1)n2CCC(N)=O`, at Insulin receptor, the 50% inhibitory concentration (IC50) is greater than 6 µM.
On to `CN(C(=O)c1ccccc1)c1ccc2c(c1)[nH]/c(=N\C(=O)c1ccc(N3CCCC3)s1)n2CCC(N)=O`, for which the IC50 against Insulin receptor is greater than 6 µM.
On the same count and under the same terms, for `CN(C(=O)c1ccccc1)c1ccc2c(c1)[nH]/c(=N\C(=O)c1ccc(-c3csc(N)n3)s1)n2CCC(N)=O` the value was greater than 6 µM.
The compound `CN(C(=O)c1ccccc1)c1ccc2c(c1)nc(NC(=O)c1ccc(OCc3ccccc3)s1)n2CCC(N)=O` returned an IC50 against Insulin receptor greater than 6 µM.
For the compound `CN(C(=O)c1ccccc1)c1ccc2c(c1)nc(NC(=O)c1ccc(C(=O)c3ccccc3)s1)n2CCC(N)=O`, the IC50 against Insulin receptor was greater than 6 µM.
As to `CN(C(=O)c1ccccc1)c1ccc2c(c1)nc(NC(=O)c1cscn1)n2CCC(N)=O`, the half-maximal inhibitory concentration (IC50) is greater than 5 µM in test [2], 0.34 µM in test [3] and 6.1 µM at Insulin receptor.
At Insulin receptor, `CN(C(=O)c1ccccc1)c1ccc2c(c1)nc(NC(=O)c1ccc3ccccc3c1)n2CCC(N)=O` came in with a concentration for half-maximal inhibition (IC50) greater than 6 µM.
`CN(C(=O)c1ccccc1)c1ccc2c(c1)[nH]/c(=N\C(=O)c1cncs1)n2CCC(N)=O`: the concentration for half-maximal inhibition (IC50) in test [2] is greater than 5 µM; in test [3] it was 0.13 µM; at Insulin receptor it was 1.6 µM.
At Insulin receptor, `CN(C(=O)c1ccccc1)c1ccc2c(c1)nc(NC(=O)c1ccc(-c3ccnc(C#N)c3)s1)n2CCC(N)=O` returned an IC50 greater than 6 µM.
On the same count and under the same terms, for `CN(C(=O)c1ccccc1)c1ccc2c(c1)nc(NC(=O)c1ccc(-c3ccc(F)nc3)s1)n2CCC(N)=O` the value was greater than 6 µM.
Turning to `CN(C(=O)c1ccccc1)c1ccc2c(c1)[nH]/c(=N\C(=O)c1cnco1)n2CCC(N)=O`, in test [1], the Ratio IC50 was greater than 1000. Moreover, the 50% inhibitory concentration (IC50) in test [2] is greater than 5 µM; in test [3] it was 0.18 µM; against Insulin receptor, greater than 6 µM.
On to `CN(C(=O)c1ccccc1)c1ccc2c(c1)[nH]/c(=N\C(=O)c1cccc3ccccc13)n2CCC(N)=O`, for which the concentration for half-maximal inhibition (IC50) at Insulin receptor was 5.8 µM.
On the same count and under the same terms, to `CN(C(=O)c1ccccc1)c1ccc2c(c1)nc(NC(=O)c1ccc(C#N)cc1)n2CCC(N)=O` belongs greater than 6 µM; to `CN(C(=O)c1ccccc1)c1ccc2c(c1)[nH]/c(=N\C(=O)c1ccc(-c3ccc(C#N)nc3)s1)n2CCC(N)=O`, greater than 6 µM; to `CN(C(=O)c1ccccc1)c1ccc2c(c1)[nH]/c(=N\C(=O)c1ccc(-c3ccccc3)cc1)n2CCC(N)=O`, greater than 6 µM.
Take `CN(C(=O)c1ccccc1)c1ccc2c(c1)nc(NC(=O)c1ccc(N3CCOCC3)s1)n2CCC(N)=O`: the IC50 in test [2] was greater than 3.2 µM; in test [3], 0.074 µM; against Insulin receptor, greater than 6 µM.
`CN(C(=O)c1ccccc1)c1ccc2c(c1)nc(NC(=O)c1ccsc1)n2CCC(N)=O`: at Insulin receptor, it took 0.24 µM to reach half-maximal inhibition (IC50).
On the same count and under the same terms, to `CN(C(=O)c1ccccc1)c1ccc2c(c1)[nH]/c(=N\C(=O)c1ccc(-c3ncco3)s1)n2CCC(N)=O` belongs greater than 6 µM.
`CN(C(=O)c1ccccc1)c1ccc2c(c1)nc(NC(=O)c1cocn1)n2CCC(N)=O`: the IC50 in test [2] is greater than 5 µM; in test [3] it was 0.17 µM; on Insulin receptor, greater than 6 µM.
As for `CN(C(=O)c1ccccc1)c1ccc2c(c1)[nH]/c(=N\C(=O)c1ccc(-c3ccncc3)s1)n2CCC(N)=O`, at Insulin receptor, the half-maximal inhibitory concentration (IC50) was greater than 6 µM.
Turning to `CN(C(=O)c1ccccc1)c1ccc2c(c1)nc(NC(=O)c1ccc(Br)s1)n2CCC(N)=O`, the results for the IC50 (in test [2]; in test [3]; on Insulin receptor) were 0.1 µM, 0.015 µM and 0.63 µM, respectively.
Consider `CN(C(=O)c1ccccc1)c1ccc2c(c1)[nH]/c(=N\C(=O)c1cccc(-c3ccccc3)c1)n2CCC(N)=O`, for which, on Insulin receptor, the IC50 is greater than 6 µM.
The same measure, in the same setting: to `CN(C(=O)c1ccccc1)c1ccc2c(c1)nc(NC(=O)c1ccc(-c3nccs3)s1)n2CCC(N)=O` belongs greater than 6 µM.

Broadly, the IC50 is the concentration needed to halve the response being measured.
